Experimental data: patent US20210277428A1, “NOVEL MALONYL-COA BIOSENSOR BASED ON TYPE III […] AND USE THEREOF” (KOREA ADVANCED INSTITUTE OF SCIENCE AND TECHNOLOGY, priority 2018, published 2021)

Assays:
[1] = test system: E. coli BL21(DE3) strains expressing AaOKS, AaPKS4 and AaPKS5; experiment: AaOKS, AaPKS4 and AaPKS5 malonyl-CoA biosensor experiments using cerulenin; type: cell-based; settings: different concentrations of cerulenin added to the medium
[2] = test system: E. coli BL21(DE3) strain containing the plasmid pTac-5′UTR-Sgr_rppA; experiment: RppA malonyl-CoA biosensor characterization with cerulenin in E. coli; type: cell-based
Protocol: After construction of a malonyl-CoA biosensor based on S. griseus RppA, the following experiment was performed in order to examine the applicability of the biosensor. First, the signal of the RppA malonyl-CoA biosensor was defined as the absorbance of culture supernatant at 340 nm (FIG. 3D). Generally, for characterizing a biosensor, different concentrations of a target compound has to be added to examine whether an increased signal occur. However, because malonyl-CoA is a substance that cannot pass through the cell membrane, adding malonyl-CoA to medium is meaningless. Thus, cerulenin (Sigma-aldrich, USA) known to block fatty acid biosynthetic pathways was used to indirectly characterize the biosensor (Omura S (1976), Bacteriol Rev 40:681-697.). Cerulenin blocks fatty acid biosynthetic pathways, and thus leads to the accumulation of malonyl-CoA, a fatty acid precursor. Thus, the concentration of malonyl-CoA in E. coli according to addition of different concentrations of cerulenin as described in previous studies was measured (Xu P, Li L, Zhang F, Stephanopoulos G, Koffas M (2014), Proc Natl Acad Sci USA 111:11299-11304). […] The inoculated cells were cultured in an incubator at 30° C. and 220 rpm for 16 hours, and then the growth (OD600) of the cells and the absorbance at 340 nm of the culture supernatant were measured. […]

[3] = test system: P. putida pBBR1-rppA strain; experiment: RppA malonyl-CoA biosensor characterization with cerulenin in P. putida; type: cell-based, Pseudomonas putida; settings: MR-MOPS medium, increasing cerulenin concentration
[4] = test system: C. glutamicum pCES-His-rppA strain; experiment: RppA malonyl-CoA biosensor characterization with cerulenin in C. glutamicum; type: cell-based, Corynebacterium glutamicum; settings: increasing cerulenin concentration

C/C=C/C/C=C/CCC(=O)[C@H]1O[C@H]1C(N)=O [cerulenin]
signal (absorbance at 300 nm of the culture supernatant) [1]: signal generated from each strain increased as the intracellular malonyl-CoA concentration increased | normalized signal (absorbance of culture supernatant at 340 nm) ([2]; cerulenin 0, 5, 10, 15, 20, 25, 50, and 100 μM, 16 hours, 30° C., compared to the strain that does not express RppA): obviously increased as the concentration of cerulenin increased | normalized production of flaviolin ([2]; increasing cerulenin concentration, also observed by the naked eyes): increased with increasing cerulenin concentration | normalized production of flaviolin [3]: increased as the cerulenin concentration in the corresponding strain increased | normalized signal [3]: increased as the cerulenin concentration in the corresponding strain increased | normalized production of flaviolin [4]: increased as the cerulenin concentration in the corresponding strain increased | normalized signal [4]: increased as the cerulenin concentration in the corresponding strain increased
